Data from paper PMC11950244, “Discovery of novel dual-target inhibitors of LSD1/EGFR for non-small cell lung cancer therapy” (Acta Pharmacologica Sinica, 2025).
Like-named read-outs stand apart in the source and are kept apart here.

Key:
[1] = tested on: BaF3 cells stably expressing EGFR (L858R/T790M/C797S); experiment: BaF3 cell assay (CTG luminescence); settings: Mus musculus, BaF3, read-out: BaF3 cell assay IC50 (μM) L858R/T790M/C797S
[2] = tested on: BaF3 cells harboring EGFR L858R/T790M/C797S mutant; parameters: method as in PMID 30429956; settings: read-out: IC50 BaF3 cells harboring EGFR L858R/T790M/C797S, previous studies; cited from earlier work
LSD1 [3] = target: T1, LSD1 (Homo sapiens, UniProt O60341); experiment: LSD1 enzymatic assay; format: biochemical; settings: for Bottom / Top / Hillslope: concentration-response curve fit parameter;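 for Bottom: percent inhibition of LSD1 activity from the fitted dose-response curve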;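 for Top: percent inhibition of LSD1 activity from the fitted dose-response curve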
Method: A total of 12 compounds were purchased from J&K Scientific Ltd. (Shanghai, China). The biological experiments of inhibiting the enzymatic activity of LSD1 by 12 test compounds were conducted by Pharmaron (Beijing, China). Each compound was serially diluted 4-fold in 100% dimethyl sulfoxide (DMSO) from a starting DMSO stock concentration of 20 mM to obtain 10 concentration doses. Seclidemstat was used as a positive control. The diluted compounds were added to the LSD1 assay buffer (50 mM Tris-HCl, pH 7.5, and 1% DMSO) and incubated with LSD1 for 30 min at room temperature. The peptide substrate was then added to initiate the reaction, and the mixture was further incubated for 60 min at room temperature. The reaction was stopped by adding the stop solution, followed by the addition of the detection solution containing protein-A-Eu, streptavidin-d2, and anti-Histone H3 (dimethyl K9) antibody. […] The IC50 was calculated using a nonlinear regression (dose response – variable slope) by fitting the inhibition ratio and log of compound concentrations using Graphpad 8.0.

[4] = target: double-mutant EGFR (T790M/L858R) (Homo sapiens, UniProt P00533, L858R/T790M); experiment: EGFR kinase assay (HTRF), double mutant; format: biochemical
double-mutant EGFR (T790M/L858R), sequence (P00533 25-1210 T790M/L858R): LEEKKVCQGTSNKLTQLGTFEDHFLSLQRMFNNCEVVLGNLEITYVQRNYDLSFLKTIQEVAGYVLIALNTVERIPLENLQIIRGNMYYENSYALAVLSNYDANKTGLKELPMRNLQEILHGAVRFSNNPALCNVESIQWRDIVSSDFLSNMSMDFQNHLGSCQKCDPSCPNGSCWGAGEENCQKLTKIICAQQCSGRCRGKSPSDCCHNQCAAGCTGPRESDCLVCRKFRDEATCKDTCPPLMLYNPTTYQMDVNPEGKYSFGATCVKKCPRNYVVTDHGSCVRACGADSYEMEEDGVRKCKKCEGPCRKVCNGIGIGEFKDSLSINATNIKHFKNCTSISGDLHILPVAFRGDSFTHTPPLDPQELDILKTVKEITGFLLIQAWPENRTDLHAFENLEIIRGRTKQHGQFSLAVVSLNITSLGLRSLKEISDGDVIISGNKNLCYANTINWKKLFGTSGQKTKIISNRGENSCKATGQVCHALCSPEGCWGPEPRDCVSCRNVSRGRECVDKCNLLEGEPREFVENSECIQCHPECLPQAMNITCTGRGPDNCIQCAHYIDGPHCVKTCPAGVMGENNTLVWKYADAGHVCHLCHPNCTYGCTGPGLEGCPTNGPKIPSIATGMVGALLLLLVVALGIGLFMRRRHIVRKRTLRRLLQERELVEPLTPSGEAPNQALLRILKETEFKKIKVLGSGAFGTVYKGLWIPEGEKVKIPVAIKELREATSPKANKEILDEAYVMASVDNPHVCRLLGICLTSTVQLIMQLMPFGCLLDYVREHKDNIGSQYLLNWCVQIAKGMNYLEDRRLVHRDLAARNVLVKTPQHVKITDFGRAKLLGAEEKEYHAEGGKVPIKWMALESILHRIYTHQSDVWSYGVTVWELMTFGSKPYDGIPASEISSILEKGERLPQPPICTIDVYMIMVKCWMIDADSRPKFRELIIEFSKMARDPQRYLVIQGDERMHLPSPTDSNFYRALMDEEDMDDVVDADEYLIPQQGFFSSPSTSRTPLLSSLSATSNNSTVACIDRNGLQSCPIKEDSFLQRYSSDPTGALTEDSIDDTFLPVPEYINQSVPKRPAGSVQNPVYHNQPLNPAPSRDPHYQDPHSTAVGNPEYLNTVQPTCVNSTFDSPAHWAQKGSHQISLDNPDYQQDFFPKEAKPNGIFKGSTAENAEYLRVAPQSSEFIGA
Method: (§1) The biological experiments of inhibiting the activity of EGFR by test compounds were also performed by Pharmaron (Beijing). To conduct the kinase assay, the following steps were followed:
(§2) % Inhibition is calculated as follow: %Inhibition=1−SINGALcmpd−SINGALave−pc/SINGALave−vc−SINGALave−pc×100
(§3) SINGALcmpd = singal for compound being tested
(§4) SINGALave_pc = singal for positive controls
(§5) SINGALave_vc = singal for vehicle controls

[5] = target: triple-mutant EGFR (L858R/T790M/C797S) (Homo sapiens, UniProt P00533, C797S/L858R/T790M); experiment: EGFR kinase assay (HTRF), triple mutant; format: biochemical
triple-mutant EGFR (L858R/T790M/C797S), sequence (P00533 25-1210 T790M/C797S/L858R): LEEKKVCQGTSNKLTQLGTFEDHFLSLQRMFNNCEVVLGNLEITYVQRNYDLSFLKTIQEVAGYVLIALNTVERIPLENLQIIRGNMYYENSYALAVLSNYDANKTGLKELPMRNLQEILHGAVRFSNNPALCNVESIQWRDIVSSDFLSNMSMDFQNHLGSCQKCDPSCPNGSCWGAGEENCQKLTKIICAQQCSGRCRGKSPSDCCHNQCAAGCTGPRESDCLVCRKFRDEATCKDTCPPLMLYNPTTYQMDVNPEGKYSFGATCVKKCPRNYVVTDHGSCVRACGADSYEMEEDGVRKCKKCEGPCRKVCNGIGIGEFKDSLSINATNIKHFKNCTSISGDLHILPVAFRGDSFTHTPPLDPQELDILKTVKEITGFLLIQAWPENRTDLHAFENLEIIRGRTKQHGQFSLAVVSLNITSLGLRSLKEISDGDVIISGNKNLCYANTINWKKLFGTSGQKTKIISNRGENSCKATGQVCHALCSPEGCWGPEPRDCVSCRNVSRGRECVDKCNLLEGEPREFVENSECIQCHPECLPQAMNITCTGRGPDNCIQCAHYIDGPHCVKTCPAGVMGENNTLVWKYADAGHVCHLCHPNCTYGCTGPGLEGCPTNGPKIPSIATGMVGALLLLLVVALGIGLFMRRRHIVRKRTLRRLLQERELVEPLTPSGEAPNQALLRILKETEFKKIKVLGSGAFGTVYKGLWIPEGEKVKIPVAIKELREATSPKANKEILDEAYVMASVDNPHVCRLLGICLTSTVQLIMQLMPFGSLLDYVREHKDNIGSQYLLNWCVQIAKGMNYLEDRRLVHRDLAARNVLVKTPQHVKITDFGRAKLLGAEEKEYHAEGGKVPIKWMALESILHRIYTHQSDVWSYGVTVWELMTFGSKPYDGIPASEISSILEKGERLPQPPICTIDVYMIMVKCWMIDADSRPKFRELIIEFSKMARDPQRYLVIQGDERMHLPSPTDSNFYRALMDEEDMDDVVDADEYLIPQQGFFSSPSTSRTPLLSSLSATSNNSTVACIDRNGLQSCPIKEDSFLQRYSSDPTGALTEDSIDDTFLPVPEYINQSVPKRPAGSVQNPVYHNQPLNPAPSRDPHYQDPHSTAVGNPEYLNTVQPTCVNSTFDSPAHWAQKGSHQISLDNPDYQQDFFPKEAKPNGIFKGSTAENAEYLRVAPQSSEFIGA
Method: as §1, §2, §3, §4, §5

[6] = tested on: LSD1/EGFR relevant downstream signaling pathways; experiment: Western blot of signaling pathway proteins in the H1975 CDX model; format: in vivo, nude mice
Method: Cells were lysed with lysis buffer (1.5 M NaCl, 1 M Hepes, 20% NP40, 0.1 M Na pyrophosphate, 0.1 M NaF, 0.1 M Na3VO4, 0.2 M glycerol phosphate) on ice for 30 min and then centrifuged at 12,000 r/min for 15 min at 4 °C. Protein samples were loaded into 12% SDS-PAGE, then separated by running for different voltage, and transferred onto PVDF membranes (Millipore, MA, USA). The membranes were blocked with 5% non-fat milk for 2 h and then incubated overnight at 4 °C or at room temperature for 2 h with the primary antibody and 1 h at room temperature with secondary antibody. Signals were detected using Luminol substrate solution (Millipore, MA, USA).

Ki67 = Ki67 immunohistochemical staining of CDX tumors; format: in vivo, nude mice; settings: CDX tumor, L-1 treatment group
Method: Immunohistochemistry was performed on paraffin-embedded sections. Tissue sections were dewaxed and rehydrated using standard protocol. Antigen retrieval was performed by boiling samples in citrate buffer for 45 min. Endogenous peroxidase activity was inhibited by using 3% hydrogen peroxidase. Sections were blocked in 3% BSA in PBS and incubated in primary antibody (Ki67, CST, MA, USA) overnight at 4 °C. Then the secondary antibody (Goat anti-rabbit IgG (H + L) HRP, Bioworld, OH, USA) was incubated at room temperature for 1.5 h and developed using DAB. Sections were counterstained with hematoxylin.

[7] = tested on: H1975 cells-derived xenograft (CDX); experiment: H1975 cell-derived xenograft (CDX) mouse model, tumor formation; format: in vivo, nude mice; settings: 75 and 150 mg/kg i.p. every two days, compared to control group
Method: (§6) Nude mice (nu/nu, female, 4–6-week-old) were purchased from Charles River (Beijing, China) and subcutaneously injected with 2 × 10^6 H1975 cells harboring on the right flank. Tumor growth was recorded by measurement of two perpendicular diameters using the equation: π/6 × length × width^2. To explore the effect of L-1 on tumorigenicity in lung cancer, when tumor volumes reached approximately 50 mm^3, mice received either vehicle control, L-1 (75 mg/kg) and L-1 (150 mg/kg), and they were administered every two days by i.p. injection. The mice were sacrificed, and the tumors were excised, imaged and weighed after inhibitor treatments. Statistical analyses have been done by comparison in relation to the control group with a two-tailed unpaired Student’s t test. The animal experiments were performed according to the institutional ethical guidelines approved by the Laboratory Animal Ethics Committee Nankai University.

[8] = tested on: H1975 cells (with EGFR mutant); experiment: Cell proliferation assay (cell number counting), H1975; format: cell-based
Method: (§7) Lung cancer H460, H1299, PC9, and H1975 cells were purchased from Procell (Wuhan, China) and cultured in RPMI-1640 medium (Thermo Fisher Scientific, MA, USA) supplemented with 10% fetal bovine serum (FBS, ExCell Bio, Shanghai, China). For cell proliferation assay, the cells were seeded in a 24-well plate (0.5 × 10^4 cells/well), then treated with L-1 with increasing concentrations (0, 2.5, 5, 10, 20, 40 μM) or vehicle alone. Cell numbers were counted using try-pan blue exclusion on the fourth day.

LSD1 [9] = target: T1, LSD1; experiment: SPR binding assay (Biacore T200)
Method: Surface plasmon resonance (SPR) was employed to evaluate direct binding between compounds and LSD1 using Biacore T200 optical biosensor (Biacore Life Sciences, GE Healthcare). LSD1 was covalently attached to CM5 sensor chip via amine coupling. Binding experiments were conducted at 15 °C in a buffer containing 10 mM HEPES (pH 7.4), 150 mM NaCl, 1% DMSO, and 0.05% Tween, with a flow rate of 30 μL/min. Compounds were serially diluted in the same buffer and injected over the prepared surfaces for 15–25 s at increasing concentrations. Sensorgrams were corrected by subtracting signals from both an untreated reference channel and blank injections. Data analysis was performed using Biacore T200 evaluation software (GE Healthcare).

[10] = tested on: PC9 cells (with EGFR mutant); experiment: Cell proliferation assay (cell number counting), PC9; format: cell-based
Method: as §7

[11] = tested on: H460 cells (with EGFR wild type); experiment: Cell proliferation assay (cell number counting), H460; format: cell-based; settings: 0-40 μM, counted on the fourth day
Method: as §7

[12] = Body weight of H1975 xenograft nude mice; format: in vivo; settings: 75 and 150 mg/kg i.p. every two days
Method: as §6

[13] = tested on: H1299 cells (with EGFR wild type); experiment: Cell proliferation assay (cell number counting), H1299; format: cell-based; settings: 0-40 μM, counted on the fourth day
Method: as §7

EGFR wild-type cells = tested on: EGFR wild-type cells; parameters: method as in Hu et al. [61]; settings: ref Hu et al. [61]; cited from earlier work
EGFR-mutant NSCLC cells = tested on: EGFR-mutant NSCLC cells; parameters: method as in Hu et al. [61]; settings: ref Hu et al. [61]; cited from earlier work
[14] = read-out: IC50 (μM) against LSD1
[15] = read-out: EGFR kinase assay IC50 (μM) L858R/T790M/C797S
[16] = 0-40 μM, counted on the fourth day
[17] = LSD1 knockdown compared to control cells

| Compound | Relative potency % (LSD1 [3]) [%] | Bottom (LSD1 [3]) | Top (LSD1 [3]) | IC50 (LSD1 [3]; [14]) [µM] | further results |
| --- | --- | --- | --- | --- | --- |
| COc1cc(N2CCC(N3CCN(C)CC3)CC2)ccc1Nc1ncc(Cl)c(Nc2ccccc2P(C)(C)=O)n1 [Brigatinib, reference compound] | – | – | – | – | IC50 [1]: 0.4 µM; IC50 [2]: 0.42 µM |
| CCN(CC)c1ccc(/C=C2/C(=O)NC(=O)N(c3ccc(Cl)cc3)C2=O)cc1 [D-1] | – | – | – | – | IC50 (LSD1 [3]): > 100 µM |
| CCN(CC)c1ccc(/C=C2/C(=O)NC(=O)N(c3ccc(Cl)cc3)C2=O)c(OC)c1 [D-2] | – | – | – | – | IC50 (LSD1 [3]): > 100 µM |
| CCN(CC)c1ccc(/C=C2/C(=O)NC(=O)N(c3ccc(C(F)(F)F)cc3)C2=O)c(O)c1 [D-3] | 0.4 | 8.10 | 45.78 | – | IC50 (LSD1 [3]): 35.7 µM |
| Cc1ccc(-c2noc(-c3cccn(CC(=O)Nc4ccccc4Br)c3=O)n2)cc1 [D-4] | 0.5 | 5.79 | 60.26 | 29.2 | Hillslope (LSD1 [3]): 4.05 |
| COc1ccccc1NC(=O)Cn1cc(-c2nc(-c3ccc(C)cc3)no2)ccc1=O [D-5] | 0.7 | 7.19 | 54.06 | 21.5 | Hillslope (LSD1 [3]): 2.04 |
| CCOc1ccccc1NC(=O)Cn1cc(-c2nc(-c3ccc(C)cc3)no2)ccc1=O [D-6] | – | – | – | > 100 | – |
| COC(=O)c1ccccc1NC(=O)Cn1cc(-c2nc(-c3ccc(C)cc3)no2)ccc1=O [D-7] | – | – | – | > 100 | – |
| Cc1ccc(-c2noc(-c3ccc(=O)n(CC(=O)Nc4cccc(Br)c4)c3)n2)cc1 [D-8] | – | – | – | > 100 | – |
| Cc1ccc(-c2noc(-c3ccc(=O)n(CC(=O)Nc4ccc(Br)cc4)c3)n2)cc1 [D-9] | 0.5 | 3.84 | 52.57 | 26.6 | – |
| Cc1ccc(-c2noc(-c3ccc(=O)n(CC(=O)Nc4ccccc4C(F)(F)F)c3)n2)cc1 [D-10] | 0.4 | 2.43 | 42.68 | 34.3 | – |
| Cc1ccc(-c2noc(-c3ccc(=O)n(CC(=O)Nc4ccc(C)cc4Br)c3)n2)cc1 [D-11] | – | – | – | > 100 | – |
| COc1cc(Cl)c(C)cc1NC(=O)Cn1cc(-c2nc(-c3ccc(C)cc3)no2)ccc1=O [D-12] | – | – | – | > 100 | – |
| CCCCNC(=O)Cn1cc(-c2nc(-c3ccc(C)cc3)no2)ccc1=O [D-13] | – | – | – | > 100 | – |
| Cc1ccc(-c2noc(-c3ccc(=O)n(CC(=O)NCc4ccccc4)c3)n2)cc1 [D-14] | 0.5 | −1.64 | 48.09 | 28.3 | IC50 [4]: 73.9 µM; Hillslope (LSD1 [3]): 2.53; IC50 [1]: 2.45 µM; IC50 [5, 15]: 86.7 µM |
| COC(=O)c1sccc1NC(=O)Cn1cc(-c2nc(-c3ccc(C)cc3)no2)ccc1=O [D-15] | – | – | – | > 100 | – |
| Cc1noc(-c2ccc(=O)n(CC(=O)Nc3ccccc3Br)c2)n1 [D-16] | 0.5 | −2.33 | 51.97 | 28.7 | IC50 [1]: 2.72 µM; IC50 [5, 15]: 59.6 µM |
| CCCc1noc(-c2ccc(=O)n(CC(=O)Nc3ccccc3Br)c2)n1 [D-17] | 0.8 | −0.07 | 64.23 | 19.8 | IC50 [4]: > 100 µM; IC50 [5, 15]: > 100 µM |
| CC(C)c1noc(-c2ccc(=O)n(CC(=O)Nc3ccccc3Br)c2)n1 [D-18] | – | – | – | > 100 | – |
| CCN(CC)c1ccc(/C=C2/C(=O)NC(=O)N(c3ccc(Cl)cc3)C2=O)c(O)c1 [L-1] | 3.7 | −4.65 | 51.52 | – | IC50 (LSD1 [3]): 6.24 µM; Hillslope (LSD1 [3]): 1.26; LSD1/EGFR relevant downstream signaling pathways (Western blot) [6]: could inhibit; level of Ki67 (IHC) (Ki67): significantly suppressed; tumor growth rate [7]: slower growth rate; tumor size [7]: smaller tumor size; tumor weight [7]: lighter tumor weight; cell proliferation, H1975 [8, 16]: significantly inhibited; efficacy after LSD1 knockdown, H1975 [8, 17]: less effective; IC50 [1]: 5.58 µM; Binding to LSD1 by SPR (in words) (LSD1 [9]): specific and reversible binding; Kd (LSD1 [9]): 18.2 µM; cell proliferation, PC9 [10, 16]: significantly inhibited; efficacy after LSD1 knockdown, PC9 [10, 17]: less effective; cell proliferation, H460 [11]: not have effect; body weight of nude mice [12]: did not affect; IC50 [5]: 5.01 µM; cell proliferation, H1299 [13]: not have effect |
| Cc1ccc(-c2noc(-c3ccc(=O)n(CC(=O)Nc4ccccc4Br)c3)n2)cc1 [L-6] | 2.5 | −11.46 | 55.47 | 9.26 | IC50 [4]: 26.5 µM; Hillslope (LSD1 [3]): 1.86; IC50 [1]: 8.99 µM; Binding to LSD1 by SPR (in words) (LSD1 [9]): specific and reversible binding; Kd (LSD1 [9]; SPR, 15 °C, read-out: dissociation constant (KD)): 26.4 µM; IC50 [5, 15]: 28.5 µM |
| C=CC(=O)Nc1cc(Nc2nccc(-c3cn(C)c4ccccc34)n2)c(OC)cc1N(C)CCN(C)C [Osimertinib] | – | – | – | – | effect on EGFR wild-type cells (EGFR wild-type cells): less pronounced impact; effect on EGFR-mutant cells (EGFR-mutant NSCLC cells): significant inhibitory effect |
| C/C(=N\NC(=O)c1cccc(S(=O)(=O)N2CCN(C)CC2)c1)c1cc(Cl)ccc1O [Seclidemstat, seclidemstat, reference compound] | – | – | – | – | Inhibitory activity against EGFR double mutant (in words) [4]: does not exhibit inhibitory activity; IC50 (LSD1 [3]): 0.231 µM; Inhibition of LSD1 enzymatic activity (LSD1 [3]; at 10 μM): complete inhibition; IC50 [1]: 0.98 µM; Inhibitory activity against EGFR triple mutant (in words) [5]: does not exhibit inhibitory activity |
